Where “and” joins values, the source holds several entries; their conditions need not be identical. Equal entries are not always repeated.
Tested on: 855422-203-R-J1-PDC complex spheroid growth
Test: Anticancer human tumor 855422-203-R-J1-PDC patient-derived bladder carcinoma cell line growth inhibition [AhR]
Details: for viability, T/C: stronger effect = lower value
Procedure, shortened: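 Spheroids combined tumor cells with HUVEC endothelial cells and human MSCs as stroma. AhR antagonists were paired with standard or investigational drugs, each dosed in half-log steps down from near clinical Cmax, or from 10 microM where Cmax was unknown.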
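Note: spheroids exposed to agents for seven days before readout.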
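Throughout, for viability, T/C: percent of DMSO vehicle control luminescence viability.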

Nc1ncn(C2CC(O)C(CO)S2)c(=O)n1 (configuration not stated) + Cc1ccccc1N=Nc1ccc(NC(=O)c2ccnn2C)c(C)c1
IC50 (curve of first compound, second compound 0.1 µM): > 300 nM | IC50 (curve of first compound, second compound 0.316 µM): > 300 nM | IC50 (curve of first compound, second compound 1 µM): > 300 nM | IC50 (curve of first compound, second compound 3.16 µM): > 300 nM | IC50 (curve of first compound, second compound 10 µM): > 300 nM | viability, T/C (second compound 0.1 µM, first compound 0.000949 µM): 99.8% | viability, T/C (second compound 0.1 µM, first compound 0.003 µM): 94.9% | viability, T/C (second compound 0.1 µM, first compound 0.00949 µM): 98% | viability, T/C (second compound 0.1 µM, first compound 0.03 µM): 95.9% | viability, T/C (second compound 0.1 µM, first compound 0.0949 µM): 97% | viability, T/C (second compound 0.1 µM, first compound 0.3 µM): 93.8% | viability, T/C (second compound 0.316 µM, first compound 0.000949 µM): 104% | viability, T/C (second compound 0.316 µM, first compound 0.003 µM): 97.7% | viability, T/C (second compound 0.316 µM, first compound 0.00949 µM): 97.7% | viability, T/C (second compound 0.316 µM, first compound 0.03 µM): 99.8% | viability, T/C (second compound 0.316 µM, first compound 0.0949 µM): 95.4% | viability, T/C (second compound 0.316 µM, first compound 0.3 µM): 101% | viability, T/C (second compound 1 µM, first compound 0.000949 µM): 100% | viability, T/C (second compound 1 µM, first compound 0.003 µM): 100% | viability, T/C (second compound 1 µM, first compound 0.00949 µM): 92.5% | viability, T/C (second compound 1 µM, first compound 0.03 µM): 98.2% | viability, T/C (second compound 1 µM, first compound 0.0949 µM): 98% | viability, T/C (second compound 1 µM, first compound 0.3 µM): 92.6% | viability, T/C (second compound 3.16 µM, first compound 0.000949 µM): 98.9% | viability, T/C (second compound 3.16 µM, first compound 0.003 µM): 87.2% | viability, T/C (second compound 3.16 µM, first compound 0.00949 µM): 90.2% | viability, T/C (second compound 3.16 µM, first compound 0.03 µM): 86.3% | viability, T/C (second compound 3.16 µM, first compound 0.0949 µM): 93.7% | viability, T/C (second compound 3.16 µM, first compound 0.3 µM): 84.5% | viability, T/C (second compound 10 µM, first compound 0.000949 µM): 87.6% | viability, T/C (second compound 10 µM, first compound 0.003 µM): 80.8% | viability, T/C (second compound 10 µM, first compound 0.00949 µM): 82% | viability, T/C (second compound 10 µM, first compound 0.03 µM): 90.3% | viability, T/C (second compound 10 µM, first compound 0.0949 µM): 91.4% | viability, T/C (second compound 10 µM, first compound 0.3 µM): 78%

Nc1ccn(C2OC(CO)C(O)C2(F)F)c(=O)n1 (configuration not stated)
viability, T/C (compound 0.0316 µM): 73.2% and 108% and 116% | viability, T/C (compound 0.1 µM): 24.6% and 89.1% and 98.4% | viability, T/C (compound 0.316 µM): 14.1% and 28.8% and 44% | viability, T/C (compound 1 µM): 15.1% and 17.2% and 34.1% | viability, T/C (compound 3.16 µM): 11.1% and 14.4% and 27.2% | viability, T/C (compound 10 µM): 7.1% and 9.36% and 17.2% | IC50 (curve of compound): 55 nM and 212 nM and 290 nM

From PubChem BioAssay AID1919005 (Molecular Pharmacology Branch, DTP, NCI, 2023)
